Laboratory results as given in patent US8927024B1, “Antimicrobial polyanhydride nanoparticles” (priority 2009, dated 2015).
“And” between values parts separate entries of the source, which are not always exact repeats. Identical values can stand only once. Like-named read-outs stand apart in the source and are kept apart here.

How the values were obtained:
[1] = system: Mycobacterium avium subsp. paratuberculosis (MAP); assay: Viability of MAP in broth culture (% live MAP by flow); conditions: for viability at 1.25 µg/mL / viability at 10 µg/mL: Mycobacterium avium, read-out: % live MAP (viability of MAP in broth)
Brucella melitensis 16M = conditions: in vivo; cited from earlier work

For NCC[C@H](O)C(=O)N[C@@H]1C[C@H](N)[C@@H](O[C@H]2O[C@H](CN)[C@@H](O)[C@H](O)[C@H]2O)[C@H](O)[C@H]1O[C@H]1O[C@H](CO)[C@@H](O)[C@H](N)[C@H]1O [Soluble, amikacin], the “antimicrobial activity in MAP cultures” value ([1]; FIG. 15, 10 μg/mL amikacin) was “minimal antimicrobial activity”, the viability at 1.25 µg/mL ([1]; 24 h) was 93.8% and the viability at 10 µg/mL ([1]; 24 h) was 90.1%. It also gave a viability at 1.25 µg/mL ([1]; 48 h) of 88.4% and a viability at 10 µg/mL ([1]; 48 h) of 84.8%.

In the case of gentamicin [Free GEN], the “Log CFU/spleen” value (Brucella melitensis 16M) is given as 6.77 ± 0.12 Log CFU/spleen, the “Reduction (log)” value (Brucella melitensis 16M) is given as 0.08 log and 0.04 log and the Spleen wt (Brucella melitensis 16M) is given as 0.86 ± 0.05 g and 0.83 ± 0.26 g.
